{"source": "patent US11827616B2", "about": "“Heterocyclic compounds as pesticides” (Discovery Purchaser Corporation, priority 2018, dated 2023)", "type_in_all_cases": "in vivo", "key": {"Ctenocephalides felis [1]": {"system": "Ctenocephalides felis", "assay": "Ctenocephalides felis in vitro contact test with adult cat fleas", "settings": "application rate 5 μg/cm^2 (=500 g/ha); after 48 h", "in_short": "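Glass tubes coated with acetone solutions of compound (900 ppm giving 5 μg/cm^2), dried, then held 5-10 adult cat fleas at room temperature and ambient humidity. After 48 h, dead or moribund fleas were scored; efficacy expressed as percent affected.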"}, "Rhipicephalus sanguineus": {"system": "Rhipicephalus sanguineus", "assay": "Rhipicephalus sanguineus in vitro contact test with adult brown dog ticks", "settings": "application rate 5 μg/cm^2 (=500 g/ha); after 48 h", "in_short": "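Glass tubes coated with compound in acetone (900 ppm solution giving 5 μg/cm^2), then 5-10 adult ticks held in the dark at room temperature and ambient humidity. At 48 h, ticks placed on a 45-50° C. hotplate for up to 5 min; motionless or uncoordinated ones scored dead/moribund, giving % efficacy.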"}, "[2]": {"system": "cattle ticks (Boophilus microplus) Parkhurst strain, SP-resistant", "assay": "Boophilus microplus dip test", "settings": "application rate 100 ppm, after 7 days", "description": "Boophilus microplus—Dip Test\nTest animals: cattle ticks (Boophilus microplus) Parkhurst strain, SP-resistant\n(§1) Solvent: dimethyl sulfoxide\n10 mg of active compound are dissolved in 0.5 ml of dimethyl sulfoxide. To produce a suitable formulation, the active compound solution is diluted with water to the concentration desired in each case.\nThis active compound formulation is pipetted into tubes. 8-10 engorged adult female cattle ticks (Boophilus microplus) are transferred into a further tube with holes. The tube is immersed into the active compound formulation, and all the ticks are completely wetted. After the liquid has run out, the ticks are transferred on filter disks into plastic dishes and stored in a climate-controlled room.\nEfficacy is assessed after 7 days by laying of fertile eggs. Eggs which are not visibly fertile are stored in a climate-controlled cabinet until the larvae hatch after about 42 days. An efficacy of 100% means that none of the ticks has laid any fertile eggs; 0% means that all the eggs are fertile."}, "Boophilus microplus": {"system": "Boophilus microplus", "assay": "Boophilus microplus injection test", "settings": "application rate 20 μg/animal, after 7 days", "in_short": "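Compound dissolved in DMSO; 1 μl injected into the abdomen of engorged adult female ticks, five per group, kept in climate-controlled room. Efficacy scored after 7 days from fertile egg laying (100% = no fertile eggs; 0% = all fertile), with unclear eggs held ~42 days until hatching.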"}, "Lucilia cuprina": {"system": "Lucilia cuprina", "assay": "Lucilia cuprina test", "settings": "application rate 100 ppm; L1 larvae; after 2 days", "in_short": "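About 20 first-instar larvae were placed in vessels of minced horsemeat with compound at the desired concentration. Compound was dissolved in DMSO and diluted in water. Percent kill scored after 2 days.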"}, "Phaedon cochleariae": {"system": "Phaedon cochleariae", "assay": "Phaedon cochleariae spray test", "settings": "application rate 500 g/ha; after 7 days", "in_short": "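Chinese cabbage leaf discs sprayed with compound formulated in acetone/DMF and water with 1000 ppm emulsifier, then infested with mustard beetle larvae once dry. Percent larval kill scored after 7 days (100% = all dead, 0% = none).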"}, "Spodoptera frugiperda": {"system": "Spodoptera frugiperda", "assay": "Spodoptera frugiperda spray test", "settings": "application rate 500 g/ha; after 7 days", "in_short": "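Maize leaf discs sprayed with compound formulated in acetone/dimethylformamide and diluted in water with 1000 ppm alkylaryl polyglycol ether emulsifier. Once dry, discs are infested with fall armyworm caterpillars. Efficacy in % read after 7 days: 100% all caterpillars killed, 0% none killed.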"}, "Ctenocephalides felis [3]": {"system": "Ctenocephalides felis", "assay": "Ctenocephalides felis oral test", "settings": "application rate 100 ppm in citrated cattle blood; after 2 days", "description": "Ctenocephalides felis—Oral Test\nas §1\nTo produce a suitable active compound formulation, 10 mg of active compound are mixed with 0.5 ml of dimethyl sulfoxide. Dilution with citrated cattle blood gives the desired concentration.\nAbout 20 unfed adult cat fleas (Ctenocephalides felis) are placed into a chamber which is closed at the top and bottom with gauze. A metal cylinder whose bottom end is closed with parafilm is placed onto the chamber. The cylinder contains the blood/active compound formulation, which can be imbibed by the fleas through the parafilm membrane.\nAfter 2 days, the kill in % is determined. 100% means that all of the fleas have been killed; 0% means that none of the fleas have been killed."}, "Tetranychus urticae": {"system": "Tetranychus urticae", "assay": "Tetranychus urticae spray test, OP-resistant", "settings": "application rate 500 g/ha; after 6 days", "in_short": "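Bean leaf discs carrying all stages of OP-resistant Tetranychus urticae were sprayed with compound in acetone/dimethylformamide diluted in water containing alkylaryl polyglycol ether emulsifier (1000 ppm). Mortality scored after 6 days as % efficacy (100% = all mites killed).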"}}, "data": [{"smiles": "CON(C)CCOc1ccc(COc2cccc3c(Cl)c(Cl)ccc23)nc1", "note": "[Example 16]", "values": [{"measurement": "efficacy (fleas dead or moribund)", "setting": "Ctenocephalides felis [1]", "value": 100, "unit": "%"}, {"measurement": "efficacy (ticks dead or moribund)", "setting": "Rhipicephalus sanguineus", "value": 100, "unit": "%"}, {"measurement": "efficacy (laying of fertile eggs)", "setting": "[2]", "value": 95, "unit": "%"}, {"measurement": "efficacy (laying of fertile eggs)", "setting": "Boophilus microplus", "value": 100, "unit": "%"}, {"measurement": "efficacy (kill in %)", "setting": "Lucilia cuprina", "value": 100, "unit": "%"}, {"measurement": "efficacy", "setting": "Phaedon cochleariae", "value": 83, "unit": "%"}, {"measurement": "efficacy", "setting": "Spodoptera frugiperda", "value": 83, "unit": "%"}]}, {"smiles": "CON(C)CCOc1cnc(COc2ccc(Cl)c3ccccc23)c(F)c1", "note": "[Example 19]", "values": [{"measurement": "efficacy (fleas dead or moribund)", "setting": "Ctenocephalides felis [1]", "value": 100, "unit": "%"}, {"measurement": "efficacy (ticks dead or moribund)", "setting": "Rhipicephalus sanguineus", "value": 100, "unit": "%"}, {"measurement": "efficacy (laying of fertile eggs)", "setting": "[2]", "value": 100, "unit": "%"}, {"measurement": "efficacy (laying of fertile eggs)", "setting": "Boophilus microplus", "value": 100, "unit": "%"}, {"measurement": "efficacy (kill in %)", "setting": "Ctenocephalides felis [3]", "value": 80, "unit": "%"}, {"measurement": "efficacy (kill in %)", "setting": "Lucilia cuprina", "value": 98, "unit": "%"}, {"measurement": "efficacy", "setting": "Phaedon cochleariae", "value": 100, "unit": "%"}, {"measurement": "efficacy", "setting": "Spodoptera frugiperda", "value": 100, "unit": "%"}]}, {"smiles": "CON(C)CCOc1cnc(COc2ccc3sc4ccccc4c3c2)c(F)c1", "note": "[Example 23]", "values": [{"measurement": "efficacy (fleas dead or moribund)", "setting": "Ctenocephalides felis [1]", "value": 100, "unit": "%"}, {"measurement": "efficacy (ticks dead or moribund)", "setting": "Rhipicephalus sanguineus", "value": 100, "unit": "%"}, {"measurement": "efficacy (laying of fertile eggs)", "setting": "[2]", "value": 80, "unit": "%"}, {"measurement": "efficacy (laying of fertile eggs)", "setting": "Boophilus microplus", "value": 100, "unit": "%"}, {"measurement": "efficacy (kill in %)", "setting": "Lucilia cuprina", "value": 100, "unit": "%"}, {"measurement": "efficacy", "setting": "Phaedon cochleariae", "value": 100, "unit": "%"}, {"measurement": "efficacy", "setting": "Spodoptera frugiperda", "value": 100, "unit": "%"}, {"measurement": "efficacy", "setting": "Tetranychus urticae", "value": 90, "unit": "%"}]}, {"smiles": "CCOc1cc(OCc2ncc(OCCN(C)OC)cc2F)ccc1Cl", "note": "[Example 54]", "values": [{"measurement": "efficacy (fleas dead or moribund)", "setting": "Ctenocephalides felis [1]", "value": 100, "unit": "%"}, {"measurement": "efficacy (ticks dead or moribund)", "setting": "Rhipicephalus sanguineus", "value": 100, "unit": "%"}, {"measurement": "efficacy (laying of fertile eggs)", "setting": "[2]", "value": 100, "unit": "%"}, {"measurement": "efficacy (laying of fertile eggs)", "setting": "Boophilus microplus", "value": 100, "unit": "%"}, {"measurement": "efficacy (kill in %)", "setting": "Lucilia cuprina", "value": 100, "unit": "%"}, {"measurement": "efficacy", "setting": "Phaedon cochleariae", "value": 100, "unit": "%"}, {"measurement": "efficacy", "setting": "Spodoptera frugiperda", "value": 100, "unit": "%"}, {"measurement": "efficacy", "setting": "Tetranychus urticae", "value": 100, "unit": "%"}]}, {"smiles": "CON(C)CCOc1cnc(COc2ccc(F)c(-c3cccc(F)c3)c2)c(F)c1", "note": "[Example 55]", "values": [{"measurement": "efficacy (fleas dead or moribund)", "setting": "Ctenocephalides felis [1]", "value": 100, "unit": "%"}, {"measurement": "efficacy (ticks dead or moribund)", "setting": "Rhipicephalus sanguineus", "value": 100, "unit": "%"}, {"measurement": "efficacy (laying of fertile eggs)", "setting": "[2]", "value": 90, "unit": "%"}, {"measurement": "efficacy (laying of fertile eggs)", "setting": "Boophilus microplus", "value": 100, "unit": "%"}, {"measurement": "efficacy (kill in %)", "setting": "Ctenocephalides felis [3]", "value": 90, "unit": "%"}, {"measurement": "efficacy (kill in %)", "setting": "Lucilia cuprina", "value": 100, "unit": "%"}, {"measurement": "efficacy", "setting": "Phaedon cochleariae", "value": 83, "unit": "%"}, {"measurement": "efficacy", "setting": "Spodoptera frugiperda", "value": 100, "unit": "%"}, {"measurement": "efficacy", "setting": "Tetranychus urticae", "value": 100, "unit": "%"}]}, {"smiles": "COc1cc(OCc2ncc(OCCN(C)OC)cc2F)ccc1Cl", "note": "[Example 58]", "values": [{"measurement": "efficacy (laying of fertile eggs)", "setting": "[2]", "value": 95, "unit": "%"}, {"measurement": "efficacy (laying of fertile eggs)", "setting": "Boophilus microplus", "value": 100, "unit": "%"}, {"measurement": "efficacy", "setting": "Phaedon cochleariae", "value": 100, "unit": "%"}, {"measurement": "efficacy", "setting": "Spodoptera frugiperda", "value": 100, "unit": "%"}, {"measurement": "efficacy", "setting": "Tetranychus urticae", "value": 100, "unit": "%"}]}, {"smiles": "COc1cc(OCc2ncc(OCCN(C)OC)cc2F)ccc1Br", "note": "[Example 86]", "values": [{"measurement": "efficacy (fleas dead or moribund)", "setting": "Ctenocephalides felis [1]", "value": 100, "unit": "%"}, {"measurement": "efficacy (ticks dead or moribund)", "setting": "Rhipicephalus sanguineus", "value": 100, "unit": "%"}, {"measurement": "efficacy (laying of fertile eggs)", "setting": "[2]", "value": 100, "unit": "%"}, {"measurement": "efficacy (laying of fertile eggs)", "setting": "Boophilus microplus", "value": 100, "unit": "%"}, {"measurement": "efficacy", "setting": "Spodoptera frugiperda", "value": 83, "unit": "%"}]}]}
